Laboratory results as given in ChEMBL document CHEMBL5120835, “Structure-activity relationships of 1,4-bis(arylsulfonamido)-benzene or naphthalene-N,N'-diacetic acids with varying C2-substituents as inhibitors of Keap1-Nrf2 protein-protein interaction” (Eur J Med Chem, 2022).
Calls of active or inactive are those of the source. The calls are words filed in the database; no cut-off is given here.

Columns and labels:
[1] = target: T1, Keap1/Nrf2 (Homo sapiens, UniProt Q14145); test: Inhibition of recombinant human Keap1 Kelch domain (321 to 609 residues) expressed in Escherichia coli BL21 (DE3)pLysS cells/Nrf2 (unknown origin) protein-protein interaction using FITC-LDEETGEFL-NH2 as fluorescent substrate preincubated with compound for 30 mins followed by substrate addition and measured after 1 hr by fluorescence polarization assay relative to control
[2] = Lipophilicity, logD of the compound at pH 6.5; format: physicochemical; details: buffer
[3] = Lipophilicity, logD of the compound at pH 7.4; format: physicochemical; details: buffer
[4] = Upregulation of NQO1 mRNA expression in human NCM460D cells assessed as fold change in gene expression at 100 uM measured after 24 hrs by qRT-PCR analysis relative to control; format: functional
[5] = test system: NCM460D; test: Upregulation of NQO1 mRNA expression in human NCM460D cells at 1 to 100 uM measured after 24 hrs by qRT-PCR analysis; format: functional, cell-based; details: dose 1-100 µM
[6] = test system: NCM460D; test: Upregulation of HMOX1 mRNA expression in human NCM460D cells at 1 to 100 uM measured after 24 hrs by qRT-PCR analysis; format: functional, cell-based; details: dose 1-100 µM
[7] = test system: NCM460D; test: Upregulation of GSTM3 mRNA expression in human NCM460D cells at 1 to 100 uM measured after 24 hrs by qRT-PCR analysis; format: functional, cell-based; details: dose 1-100 µM
[8] = target: T1, Keap1/Nrf2; test: Inhibition of His-tagged Keap1 kelch domain/Nrf2 (unknown origin) protein-protein interaction using FITC-LDEETGEFL-NH2 peptide as substrate preincubated for 30 mins followed by substrate addition and measured after 1 hr by TR-FRET assay

T1 sequence (Q16236 whole entry, the tested form may be a part): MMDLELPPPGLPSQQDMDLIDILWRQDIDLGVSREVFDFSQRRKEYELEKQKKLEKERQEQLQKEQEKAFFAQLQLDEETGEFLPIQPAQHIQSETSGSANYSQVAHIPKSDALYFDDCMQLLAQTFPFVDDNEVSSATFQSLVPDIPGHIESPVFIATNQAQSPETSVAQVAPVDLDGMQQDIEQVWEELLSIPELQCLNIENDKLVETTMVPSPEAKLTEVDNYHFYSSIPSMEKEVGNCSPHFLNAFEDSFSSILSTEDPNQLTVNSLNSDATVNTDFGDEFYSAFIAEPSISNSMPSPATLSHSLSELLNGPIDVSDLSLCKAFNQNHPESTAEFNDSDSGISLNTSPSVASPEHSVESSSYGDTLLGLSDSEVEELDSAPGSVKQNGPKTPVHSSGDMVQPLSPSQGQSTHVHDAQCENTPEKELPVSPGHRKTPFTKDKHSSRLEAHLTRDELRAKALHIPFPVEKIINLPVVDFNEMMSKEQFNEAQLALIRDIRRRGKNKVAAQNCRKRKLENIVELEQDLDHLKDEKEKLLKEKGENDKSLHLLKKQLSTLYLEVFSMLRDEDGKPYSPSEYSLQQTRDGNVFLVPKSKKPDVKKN
T1 sequence (Q14145 whole entry, the tested form may be a part): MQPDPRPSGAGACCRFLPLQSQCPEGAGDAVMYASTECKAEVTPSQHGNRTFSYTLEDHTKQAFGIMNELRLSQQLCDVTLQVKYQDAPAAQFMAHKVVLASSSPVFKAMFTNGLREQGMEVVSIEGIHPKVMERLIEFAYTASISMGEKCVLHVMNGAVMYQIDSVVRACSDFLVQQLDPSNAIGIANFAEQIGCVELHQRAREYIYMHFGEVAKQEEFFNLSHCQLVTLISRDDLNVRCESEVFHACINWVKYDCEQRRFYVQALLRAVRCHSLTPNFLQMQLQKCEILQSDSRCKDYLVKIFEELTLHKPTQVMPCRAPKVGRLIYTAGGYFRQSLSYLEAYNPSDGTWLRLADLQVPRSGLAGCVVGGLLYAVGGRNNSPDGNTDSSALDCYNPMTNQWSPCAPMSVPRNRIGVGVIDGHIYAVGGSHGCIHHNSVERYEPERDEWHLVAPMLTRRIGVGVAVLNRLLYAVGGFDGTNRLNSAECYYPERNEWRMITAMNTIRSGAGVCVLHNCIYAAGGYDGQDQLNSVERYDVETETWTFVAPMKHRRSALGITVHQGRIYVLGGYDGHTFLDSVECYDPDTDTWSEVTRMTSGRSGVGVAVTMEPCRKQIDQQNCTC

Row | IC50 [1] | SMILES | also measured
1 | 2410 nM | O=C(O)CN(c1ccc(N(CC(=O)O)S(=O)(=O)c2ccc(F)cc2)c(OCc2ccccc2)c1)S(=O)(=O)c1ccc(F)cc1 | –
2 | 3920 nM | Cc1ccc(S(=O)(=O)N(Cc2nnn[nH]2)c2ccc(N(Cc3nnn[nH]3)S(=O)(=O)c3ccc(C)cc3)c(OCc3ccc(F)cc3)c2)cc1 | –
3 | 3730 nM | Cc1cc(C)c(S(=O)(=O)N(CC(=O)O)c2ccc(N(CC(=O)O)S(=O)(=O)c3c(C)cc(C)cc3C)c(OCc3ccc(F)cc3)c2)c(C)c1 | –
4 | 1000 nM | Cc1cccc(S(=O)(=O)N(CC(=O)O)c2ccc(N(CC(=O)O)S(=O)(=O)c3cccc(C)c3)c(OCc3ccccc3)c2)c1 | –
5 | 760 nM | COc1ccc(S(=O)(=O)N(CC(=O)O)c2ccc(N(CC(=O)O)S(=O)(=O)c3ccc(OC)cc3)c(OCc3cccnc3)c2)cc1 | –
6 | 380 nM | Cc1ccc(S(=O)(=O)N(CC(=O)O)c2ccc(N(CC(=O)O)S(=O)(=O)c3ccc(C)cc3)c(OCc3ccc4ccccc4c3)c2)cc1 | –
7 | 950 nM | COc1ccc(S(=O)(=O)N(CC(=O)O)c2ccc(N(CC(=O)O)S(=O)(=O)c3ccc(OC)cc3)c(OCCCc3ccccc3)c2)cc1 | –
8 | 1760 nM | O=C(O)CN(c1ccc(N(CC(=O)O)S(=O)(=O)c2ccc(C(F)(F)F)cc2)c(OCc2ccccc2)c1)S(=O)(=O)c1ccc(C(F)(F)F)cc1 | –
9 | 770 nM | COc1ccc(COc2cc(N(CC(=O)O)S(=O)(=O)c3ccc(OC)cc3)ccc2N(CC(=O)O)S(=O)(=O)c2ccc(OC)cc2)cc1 | –
10 | 1270 nM | Cc1ccc(S(=O)(=O)N(c2ccc(N([C@@H](C)C(=O)O)S(=O)(=O)c3ccc(C)cc3)c(OCc3ccc(F)cc3)c2)[C@@H](C)C(=O)O)cc1 | –
11 | 450 nM | Cc1ccc(S(=O)(=O)N(CC(=O)O)c2ccc(N(CC(=O)O)S(=O)(=O)c3ccc(C)cc3)c(OCc3ccccc3)c2)cc1 | –
12 | 6170 nM | COc1ccc(S(=O)(=O)N(CC(=O)O)c2ccc(N(CC(=O)O)S(=O)(=O)c3ccc(OC)cc3)c(N(C)Cc3ccccc3)c2)cc1 | –
13 | 480 nM | COc1ccc(S(=O)(=O)N(CC(=O)O)c2ccc(N(CC(=O)O)S(=O)(=O)c3ccc(OC)cc3)c(OCc3ccc4ccccc4c3)c2)cc1 | –
14 | 590 nM | O=C(O)CN(c1ccc(N(CC(=O)O)S(=O)(=O)c2ccc(Br)cc2)c(OCc2ccccc2)c1)S(=O)(=O)c1ccc(Br)cc1 | –
15 | 750 nM | O=C(O)CN(c1ccc(N(CC(=O)O)S(=O)(=O)c2ccc(-c3ccccc3)cc2)c(OCc2ccccc2)c1)S(=O)(=O)c1ccc(-c2ccccc2)cc1 | –
16 | – | COc1ccc(S(=O)(=O)N(CC(=O)O)c2ccc(N(CC(=O)O)S(=O)(=O)c3ccc(OC)cc3)c3ccccc23)cc1 | logD [2]: -1.38; logD [3]: -2.93
17 | 390 nM | COc1ccc(S(=O)(=O)N(CC(=O)O)c2ccc(N(CC(=O)O)S(=O)(=O)c3ccc(OC)cc3)c(OCc3ccc(-c4ccccc4)cc3)c2)cc1 | –
18 | 910 nM | COc1ccc(S(=O)(=O)N(CC(=O)O)c2ccc(N(CC(=O)O)S(=O)(=O)c3ccc(OC)cc3)c(OCc3ccc(F)cc3)c2)cc1 | –
19 | 1020 nM | COc1ccc(S(=O)(=O)N(CC(=O)O)c2ccc(N(CC(=O)O)S(=O)(=O)c3ccc(OC)cc3)c(OCCc3ccccc3)c2)cc1 | –
20 | 830 nM | COc1ccc(S(=O)(=O)N(CC(=O)O)c2ccc(N(CC(=O)O)S(=O)(=O)c3ccc(OC)cc3)c(OCc3ccc(Oc4ccccc4)cc3)c2)cc1 | –
21 | 790 nM | COc1ccc(S(=O)(=O)N(CC(=O)O)c2ccc(N(CC(=O)O)S(=O)(=O)c3ccc(OC)cc3)c(OCc3cccc4ccccc34)c2)cc1 | –
22 | 450 nM | Cc1ccc(S(=O)(=O)N(CC(=O)O)c2ccc(N(CC(=O)O)S(=O)(=O)c3ccc(C)cc3)c(OCc3ccc(F)cc3)c2)cc1 | –
23 | 1190 nM | COc1ccc(S(=O)(=O)N(CC(=O)O)c2ccc(N(CC(=O)O)S(=O)(=O)c3ccc(OC)cc3)c(Oc3ccc(-c4ccccc4)cc3)c2)cc1 | –
24 | 620 nM | COc1ccc(S(=O)(=O)N(CC(=O)O)c2ccc(N(CC(=O)O)S(=O)(=O)c3ccc(OC)cc3)c(OCc3ccc(C)cc3)c2)cc1 | –
25 | 2620 nM | COc1ccc(S(=O)(=O)N(CC(=O)O)c2ccc(N(CC(=O)O)S(=O)(=O)c3ccc(OC)cc3)c(COc3ccccc3)c2)cc1 | –
26 | 440 nM | Cc1ccc(S(=O)(=O)N(CC(=O)O)c2ccc(N(CC(=O)O)S(=O)(=O)c3ccc(C)cc3)c(OCc3ccc(-c4ccccc4)cc3)c2)cc1 | –
27 | 65 nM | Cc1ccc(S(=O)(=O)N(CC(=O)O)c2cc(OCc3ccc(F)cc3)c(N(CC(=O)O)S(=O)(=O)c3ccc(C)cc3)c3ccccc23)cc1 | fold change (FC) [4]: 15; Activity [5]: Active; Activity [6]: Active; logD [2]: 1.94; Activity [7]: Active; IC50 [8]: 14.2 nM; logD ([3]; read-out: logD): 0.33
28 | 890 nM | COc1ccc(S(=O)(=O)N(CC(=O)O)c2ccc(N(CC(=O)O)S(=O)(=O)c3ccc(OC)cc3)c(Oc3ccc4ccccc4c3)c2)cc1 | –

Row | SMILES | IC50 [1] | also measured
29 | COc1ccc(S(=O)(=O)N(CC(=O)O)c2ccc(N(CC(=O)O)S(=O)(=O)c3ccc(OC)cc3)c(-c3ccccc3)c2)cc1 | 3470 nM | –
